Earlier results in US20090048237A1 (priority 2007, published 2009).
Read-outs that look alike come from different tables or passages of the source.

What was measured:
[1] = human, in vivo
[2] = not given; remark: listed apart in the source
[3] = 0.2 mg/kg sublingual versus 0.2 mg/kg nasal, children
[4] = sublingual Halcion tablets
[5] = 200 mcg sublingual
[6] = 125 mcg and 250 mcg
[7] = in vivo
[8] = children

| Structure (SMILES) | children who had not previously cried that cried on administration [1] | patients who experienced nasal irritation [1] | patients with complete drug dissolution within 10 min (7.5 mg sublingual tablet) | sedation scores (7.5 mg sublingual versus oral, 30 and 60 min after administration) | children with satisfactory sedation at 15 min after administration ([2]; 0.25 mg/kg under the tongue) | children with satisfactory sedation at 15 min after administration ([2]; 0.5 mg/kg under the tongue) | children with satisfactory sedation at 15 min after administration ([2]; 0.75 mg/kg under the tongue) | midazolam level 30 min after premedication [3] | tablet dissolution after dosing [4] | depth of sedation versus 10 mg oral diazepam [5] | time after administration at which sedation developed ([5]; 61-70 year old patients) | sedation and psychomotor performance, elderly versus young persons at the same dose [6] | tablet dissolution time [7] | average sublingual tablet dissolution [8] |
| --- | --- | --- | --- | --- | --- | --- | --- | --- | --- | --- | --- | --- | --- | --- |
| Cc1ncc2n1-c1ccc(Cl)cc1C(c1ccccc1F)=NC2 [Midazolam, 8-chloro-6-(2-fluorophenyl)-1-methyl-4H-imidazo[1,5-a][1,4]benzodiazepine] | 71% | 20 | 72% | higher than in the oral group | 28% | 52% | 64% | statistically significantly higher than in the nasal group | – | – | – | – | – | – |
| Cc1nnc2n1-c1ccc(Cl)cc1C(c1ccccc1Cl)=NC2 [Triazolam, 8-chloro-6-(o-chlorophenyl)-1-methyl-4H-s-triazolo-[4,3-alpha][1,4]benzodiazepine] | – | – | – | – | – | – | – | – | 2 to 3 min | deeper sedation | 60 to 90 min | greater degree of sedation and greater impairment of psychomotor performance | ≤ 90 s | 4 min |
